Laboratory results: ChEMBL document CHEMBL5724914, “Linking interpersonal differences in gut microbiota composition and drug biotransformation activity” (2024)
Where a SMILES comes first, the peptide text is derived from it. [ ]: non-standard residue; d: D form. pGlu = O=C1CC[C@@H](C(=O)O)N1; Thz = O=C(O)[C@@H]1CSCN1

How the values were obtained:
[1] = (§1) The drug is tested on Z-013 corresponding to rabbit gut metagenome with ENA study accession number: PRJEB37062 and ENA sample accession number: ERS12561813 for biotransformation under anaerobic condition. The drug concentrations were measured over 9 timepoints collected between 0 and 24 hours of incubation by liquid-chromatography-coupled mass spectrometry (LC–MS); conditions: 2 µM
[2] = as §1, with “Z-025” for “Z-013”, “ERS12561824” for “ERS12561813”; conditions: 2 µM
[3] = as §1, with “Z-028” for “Z-013”, “mouse” for “rabbit”, “ERS12561827” for “ERS12561813”; conditions: 2 µM
[4] = as §1, with “WLS-370” for “Z-013”, “human” for “rabbit”, “ERS12561793” for “ERS12561813”; conditions: 2 µM
[5] = as §1, with “WLS-086” for “Z-013”, “human” for “rabbit”, “ERS12561752” for “ERS12561813”; conditions: 2 µM
[6] = as §1, with “Z-022” for “Z-013”, “mouse” for “rabbit”, “ERS12561821” for “ERS12561813”; conditions: 2 µM
[7] = human gut metagenome, 24 h, 2 µM
[8] = as §1, with “WLS-027” for “Z-013”, “human” for “rabbit”, “ERS12561744” for “ERS12561813”; conditions: 2 µM
[9] = as §1, with “Z-011” for “Z-013”, “mouse” for “rabbit”, “ERS12561811” for “ERS12561813”; conditions: 2 µM
Further: call rule not given here.

Q: With `CN1CCOC(c2ccccc2)c2ccccc2C1` (stereo unspecified) [NEFOPAM] as the compound, how does the “Bacterial Biotransformation” value [1] read?
A: The value was “Compound NOT metabolized”.

Q: What about the “Bacterial Biotransformation” value [2] of the same compound?
A: Its value is “Compound NOT metabolized”.

Q: What about the “Bacterial Biotransformation” value [3] of the same compound?
A: The value was “Compound NOT metabolized”.

Q: And the “Bacterial Biotransformation” value [4]?
A: Its value is “Compound metabolized”.

Q: And the “Bacterial Biotransformation” value [5]?
A: The value was “Compound metabolized”.

Q: And the “Bacterial Biotransformation” value [6]?
A: Its value is “Compound NOT metabolized”.

Q: And the “Bacterial Biotransformation” value [7]?
A: Its value is “Compound NOT metabolized”.

Q: And the “Bacterial Biotransformation” value [8]?
A: Its value is “Compound metabolized”.

Q: What about the “Bacterial Biotransformation” value [9] of the same compound?
A: Its value is “Compound NOT metabolized”.

Q: Which “Bacterial Biotransformation” value [1] does the source give for `CCN1CCCC1CNC(=O)c1cc(S(N)(=O)=O)ccc1OC` (stereo unspecified) [SULPIRIDE] here?
A: Its value is “Compound NOT metabolized”.

Q: What about the “Bacterial Biotransformation” value [2] of the same compound?
A: The value was “Compound NOT metabolized”.

Q: What about the “Bacterial Biotransformation” value [3] of the same compound?
A: Its value is “Compound NOT metabolized”.

Q: What about the “Bacterial Biotransformation” value [4] of the same compound?
A: The value was “Compound NOT metabolized”.

Q: And the “Bacterial Biotransformation” value [5]?
A: The value was “Compound metabolized”.

Q: And the “Bacterial Biotransformation” value [6]?
A: The value was “Compound NOT metabolized”.

Q: What about the “Bacterial Biotransformation” value [7] of the same compound?
A: Its value is “Compound NOT metabolized”.

Q: What about the “Bacterial Biotransformation” value [8] of the same compound?
A: Its value is “Compound metabolized”.

Q: And the “Bacterial Biotransformation” value [9]?
A: Its value is “Compound metabolized”.

Q: What does the source list for `Cc1nc(-c2ccc(OCC(C)C)c(C#N)c2)sc1C(=O)O` [FEBUXOSTAT]?
A: Bacterial Biotransformation [1]: Compound NOT metabolized; Bacterial Biotransformation [2]: Compound NOT metabolized; Bacterial Biotransformation [3]: Compound metabolized; Bacterial Biotransformation [4]: Compound metabolized; Bacterial Biotransformation [5]: Compound metabolized; Bacterial Biotransformation [6]: Compound metabolized; Bacterial Biotransformation [7]: Compound metabolized; Bacterial Biotransformation [8]: Compound metabolized; Bacterial Biotransformation [9]: Compound NOT metabolized

Q: With `C[C@@H]1C[C@H]2[C@@H]3CCC4=CC(=O)C=C[C@]4(C)[C@@]3(F)[C@@H](O)C[C@]2(C)[C@@]1(O)C(=O)CO` [DEXAMETHASONE] as the compound, how does the “Bacterial Biotransformation” value [1] read?
A: The value was “Compound NOT metabolized”.

Q: And the “Bacterial Biotransformation” value [2]?
A: Its value is “Compound NOT metabolized”.

Q: What about the “Bacterial Biotransformation” value [3] of the same compound?
A: The value was “Compound NOT metabolized”.

Q: What about the “Bacterial Biotransformation” value [5] of the same compound?
A: The value was “Compound metabolized”.

Q: And the “Bacterial Biotransformation” value [6]?
A: The value was “Compound metabolized”.

Q: What about the “Bacterial Biotransformation” value [7] of the same compound?
A: Its value is “Compound NOT metabolized”.

Q: What about the “Bacterial Biotransformation” value [8] of the same compound?
A: The value was “Compound NOT metabolized”.

Q: And the “Bacterial Biotransformation” value [9]?
A: Its value is “Compound NOT metabolized”.

Q: What does the source list for `CCCCCCOC(=O)/N=C(/N)c1ccc(NCc2nc3cc(C(=O)N(CCC(=O)OCC)c4ccccn4)ccc3n2C)cc1.CS(=O)(=O)O` [DABIGATRAN ETEXILATE MESYLATE]?
A: Bacterial Biotransformation [1]: Compound NOT metabolized; Bacterial Biotransformation [2]: Compound NOT metabolized; Bacterial Biotransformation [3]: Compound NOT metabolized; Bacterial Biotransformation [4]: Compound NOT metabolized; Bacterial Biotransformation [6]: Compound NOT metabolized; Bacterial Biotransformation [7]: Compound NOT metabolized; Bacterial Biotransformation [9]: Compound NOT metabolized

Q: Which results are given for `O=C1CC[C@@H](C(=O)N2CSC[C@H]2C(=O)O)N1` [PIDOTIMOD] ([pGlu]-[Thz]-OH)?
A: Bacterial Biotransformation [1]: Compound NOT metabolized; Bacterial Biotransformation [2]: Compound NOT metabolized; Bacterial Biotransformation [3]: Compound NOT metabolized; Bacterial Biotransformation [4]: Compound NOT metabolized; Bacterial Biotransformation [5]: Compound NOT metabolized; Bacterial Biotransformation [6]: Compound metabolized; Bacterial Biotransformation [8]: Compound NOT metabolized; Bacterial Biotransformation [9]: Compound NOT metabolized

Q: Which results are given for `c1ccc([C@H]2CN3CCSC3=N2)cc1` [LEVAMISOLE]?
A: Bacterial Biotransformation [1]: Compound NOT metabolized; Bacterial Biotransformation [2]: Compound NOT metabolized; Bacterial Biotransformation [3]: Compound metabolized; Bacterial Biotransformation [4]: Compound metabolized; Bacterial Biotransformation [6]: Compound metabolized; Bacterial Biotransformation [7]: Compound metabolized; Bacterial Biotransformation [8]: Compound metabolized; Bacterial Biotransformation [9]: Compound NOT metabolized

Q: What does the source list for `O=c1[nH]c2ccccc2n1CCCN1CCC(n2c(=O)[nH]c3cc(Cl)ccc32)CC1` [DOMPERIDONE]?
A: Bacterial Biotransformation [1]: Compound NOT metabolized; Bacterial Biotransformation [2]: Compound NOT metabolized; Bacterial Biotransformation [3]: Compound NOT metabolized; Bacterial Biotransformation [4]: Compound NOT metabolized; Bacterial Biotransformation [5]: Compound metabolized; Bacterial Biotransformation [6]: Compound NOT metabolized; Bacterial Biotransformation [8]: Compound NOT metabolized; Bacterial Biotransformation [9]: Compound NOT metabolized
